For one assay, the target named is T1, RII (Mus musculus, UniProt P12367).
T1 construct: His tag; made in house; host or cells: E. coli BL21 (B121 [sic])
The assay is described as follows: R-overlay (solid-phase binding) of 32P-labelled RII on membrane-synthesized peptides. Further details: species or system murine. The procedure: Autospot Peptide Array. Peptide arrays were synthesized on cellulose paper by using an Autospot Robot ASP222 (ABiMED, Langenfeld, Germany) as described (Frank, R., 1992, Tetrahedron 48, 123-132) or Multipep automated peptide synthesizer (INTAVIS Bioanalytical Instruments AG, Koeln, Germany) as described (Frank, R., 1992, Tetrahedron 48, 123-132).
R-overlay. R-overlays were conducted as described, using ^32P-labeled recombinant murine RII (Hausken, Z. E., et al., 1998 in Protein Targeting Protocols, ed. Clegg, R. A. (Humana, Totowa, N.J.), Vol. 88, pp. 47-64) or recombinant bovine RI (A98S) or by cold RI-overlay where bound RIα was detected by Western blot. Cold RI-overlay was performed by incubating the membranes with 250 nM RI overnight at 4° C., then the membranes were washed five times in TBST for 5 min. Detection of RI was performed using an anti-RI rabbit polyclonal antibody (Santa Cruz) at a concentration of 0.2 μg/μl for 1 hour at 4° C. Then the membranes were washed five times for 5 minutes in PBS followed by incubation with HRP-conjugated anti-rabbit IgGs (1:5000) for 1 hour at 4° C. […]
Densitometric analysis. The densitometric analysis was performed using Scion Image (www.scioncorp.com) (Scion Coorperation, Mo., USA) or Quantity One version 4.5.0, (BioRad).

The target in a further assay is T2, RIα (Bos taurus, UniProt P00514).
T2 construct: made in house; host or cells: E. coli BL21 (B121 [sic])
T2 sequence (P00514 whole entry): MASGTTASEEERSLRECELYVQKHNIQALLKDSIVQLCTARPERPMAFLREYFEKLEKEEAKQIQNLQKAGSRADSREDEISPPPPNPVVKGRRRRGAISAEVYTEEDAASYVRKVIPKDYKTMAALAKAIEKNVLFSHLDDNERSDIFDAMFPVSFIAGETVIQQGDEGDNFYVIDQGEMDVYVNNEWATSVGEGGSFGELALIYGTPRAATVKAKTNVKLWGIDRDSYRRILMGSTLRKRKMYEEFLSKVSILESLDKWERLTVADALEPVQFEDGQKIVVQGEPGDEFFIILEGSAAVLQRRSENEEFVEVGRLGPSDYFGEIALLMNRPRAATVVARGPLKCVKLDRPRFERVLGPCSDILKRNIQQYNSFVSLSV
Kind of assay: Fluorescence polarization, dissociation constant for RI. Format: binding, bovine. The settings on record: qualitative. The procedure: Fluorescence Polarization. FITC-labeled peptides (SynPep, San Diego) that were used for fluorescence polarization studies included MEME3 (LEQYANQLADQIIKEATEK(5-Carboxyfluorescein)-CONH2) and MEME3 scrambled peptide (IEKELAQQYQNADAITLEK(5-Carboxyfluorescein)-CONH2). Peptides (0.5 nM for RI experiments and 1 nM for RII experiments) were suspended to working dilutions in phosphate-buffered saline containing 5 μg/μl BSA, pH 7.0. Increasing concentrations of recombinant bovine RI wt or recombinant murine RII were added to a PBS solution and mixed with each FITC-labeled peptide. Each sample was incubated for 2.5 hours. Fluorescence polarization was measured on a Beacon 2000 (Panvera, Madison, Wis.), following the manufacturer's instructions. Saturation binding curves were generated with PRISM graphing software (GraphPad, San Diego). Dissociation constants (Kd) were calculated from the nonlinear regression curve from averages of minimum three individual experiments.
Protein expression and purification. Human RI, Bovine RI and N-terminal deletions thereof or murine RII was expressed in E. coli B121 by IPTG induction. The RI containing pellet was incubated in lysis buffer (10 mM MOPS, pH 6.5, 100 mM NaCl, 10 μM DTT added protease inhibitors) and sonicated (Branson Sonifier 250) for 1 minute in three intervals at 0° C. […]
In general terms: In fluorescence polarisation assays a small probe gives low polarisation when free and higher when bound to something large.

In another assay the target is PKA-RIα (Homo sapiens, UniProt P10644). The assay is described as follows: Solid phase pull down from T cell lysate, PKA-RIα. The class given is binding. Also on record: endogenous in cells; host or cells: Jurkat T cells. The settings on record: overnight. As to the method:
Solid phase assay and cell lysate. 5×10^6 Y1 cells or 20×10^6 Jurkat T cells lysed in 150 mM NaCl, 1% NP-40, 0.5% deoxycholate, 0.1% SDS and 50 mM Tris HCl (7.8) were incubated overnight at 4° C. with MEME3 and SM3 peptides synthesized on membranes (Autospot, Intavis, AG). The membranes were washed two times for 10 minutes in lysis buffer and thereafter in high salt lysis buffer (1 M NaCl) before boiling in SDS-PAGE loading buffer.
Solid phase pull down (see schematic illustration in FIG. 24A, left panel) was performed to analyse endogenous PKA binding to MEME3. MEME3 and SM3 peptides synthesized in triplicate on membranes were incubated overnight in T cell lysate, thereafter bound proteins were eluted, subjected to 10% PAGE electrophoresis and analysed by immunoblotting (FIG. 11). The presence of PKA subunits was assessed by immunoblotting using specific antibodies against PKA-RIα and PKA-RIIα subunits.

A further assay relates to Lck-PY505. Kind of assay: Lck-PY505 level in lipid rafts of forskolin-stimulated T cells. The class given is cell-based, human. The following applies: 25 μM, 12 hours, n=3. As to the method: Antibodies. RI or RII were immunoprecipitated with polyclonal antibodies against human RI or human RII at a 3 μg/ml dilution (Santa Cruz Biotechnology). MEME3 or scrambled peptide was immunoprecipitated with 1.5 μl of anti-GFP antiserum (Invitrogen). Monoclonal (Transduction laboratories) or polyclonal antibodies (Santa Cruz Biotechnology) against human RIα and RIIα were used at a 1 μg ml^−1 or 0.5 μg ml^−1 ilution for Western blotting. Polyclonal antibodies against human Cα (Santa Cruz Biotechnology) and LAT (Upstate Biotechnology) were used at a 0.4 μg ml^−1 and a 1 μg ml^−1 dilution for Western blotting, respectively. Polyclonal antibodies against LckPY505 (Cell Signaling) were used at a 1:1000 dilution and polyclonal antibody raised towards PS364 in Csk were used as previously described (Yaqub et al., Biochem. J., 372: p 271-8, 2003). Polyclonal antibodies against StAR (Affinity BioReagents) were used at 1 μg ml^−1. […]
Peripheral blood T cells were incubated in the absence (FIG. 20, A) or presence of 25 μM MEME3-Arg11 (B) or 25 μM SM3-Arg11 (C) for 12 hours and stimulated with forskolin to activate the PKA-Csk inhibitory pathway. […] Next, fractions were analysed by 10% PAGE, blotting onto a PVDF membrane and immunoblotting using phosphospecific antibodies to Lck-PY505 (FIG. 20, panels A-C).

T1 sequence (P12367 whole entry): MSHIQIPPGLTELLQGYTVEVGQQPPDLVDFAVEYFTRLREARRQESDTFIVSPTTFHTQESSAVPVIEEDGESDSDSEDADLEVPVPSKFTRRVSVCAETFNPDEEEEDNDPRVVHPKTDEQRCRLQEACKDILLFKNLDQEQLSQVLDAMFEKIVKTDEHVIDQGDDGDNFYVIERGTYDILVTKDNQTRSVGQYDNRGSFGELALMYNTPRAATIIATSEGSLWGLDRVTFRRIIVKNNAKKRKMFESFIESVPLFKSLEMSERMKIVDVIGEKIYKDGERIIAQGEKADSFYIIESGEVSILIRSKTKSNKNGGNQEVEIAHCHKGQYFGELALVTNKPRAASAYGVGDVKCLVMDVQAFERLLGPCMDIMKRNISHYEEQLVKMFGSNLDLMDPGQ

Take `CC[C@H](C)[C@H](NC(=O)[C@H](CCC(N)=O)NC(=O)[C@H](CC(=O)O)NC(=O)[C@H](C)NC(=O)[C@H](CC(C)C)NC(=O)[C@H](CCC(N)=O)NC(=O)[C@H](CC(N)=O)NC(=O)[C@H](C)NC(=O)[C@H](Cc1ccc(O)cc1)NC(=O)[C@H](CCC(N)=O)NC(=O)[C@H](CCC(=O)O)NC(=O)[C@@H](N)CC(C)C)C(=O)N[C@H](C(=O)N[C@@H](CCCCN)C(=O)N[C@@H](CCC(=O)O)C(=O)N[C@@H](C)C(=O)N[C@H](C(=O)N[C@@H](CCC(=O)O)C(=O)N[C@@H](CCCCNC(=O)c1ccc2c(c1)C(=O)OC21c2ccc(O)cc2Oc2cc(O)ccc21)C(N)=O)[C@@H](C)O)[C@@H](C)CC` [MEME3]: the “affinity for RII compared to PDSM” value on RII (densitometry of autoradiographs, lower) stood at 0.5 times. Further, the “competition of RII binding to an RII specific binding sequence” value on RII (up to 100 μM peptide in solution) is listed as “not able to compete the RII binding”.
With “IEKELAQQYQNADAITLE [SM3, scrambled MEME3 negative control peptide, reference compound]”, the “interaction with RI subunit” value with RIα is recorded as “No RIα binding”; with RIα (listed as control peptide), “did not interact with either R subunit”. Moreover, the “immobilization of PKA-RIα” value in the assay with PKA-RIα is given as “Neither PKA-RIα nor PKA-RIIα bound”.
Regarding “LEQYANQLADQIIKEATERRRRRRRRRrr [MEME3-Arg11]”, the “reduction of LckPY505 levels compared to SM3-Arg11 treated cells” value in the assay with Lck-PY505 stood at 60%.

Source of the values: US20080248008A1, “Inhibitors of Protein Kinase a Anchoring” (priority 2004, published 2008).
